The source of these data is PubChem BioAssay AID1117351.

Activity calls are given as the source filed them. No rule for the calls is given here.

The assay has as its system HeLa cells, 4N DNA content increase. Kind of assay: HeLa 4N DNA content increase, dose response, cell-based, IC50 (AID 1117351).
In the case of `CCCCCCCCCCCC(=O)[O][Sn]([CH2]CCC)([CH2]CCC)[O]C(=O)CCCCCCCCCCC`, the IC50 – broadly, the concentration that inhibits the measured activity by half – is > 10 µM (inactive).
Next, `CCCCCCCCCCCCCC[N+](C)(C)C`: > 10 µM (inactive); `C[n+]1c2cc(N)ccc2cc2ccc(N)cc21` (tested in a mixture with another compound): > 10 µM (inactive); `Cc1ccc([N+](=O)[O-])[c]2c1[O][Hg]2`: > 10 µM (inactive).
